Measured values: paper PMC10233829 (ACS Omega, 2023)
≈ marks a conversion by molar mass, not a printed value.

Tests used:
S. aureus NCTC 4163 = assay: MIC, twofold microdilution, standard strain; format: cell-based; details: Staphylococcus aureus, NCTC4163, 18 h
S. aureus ATCC 25923 = assay: MIC, twofold microdilution, standard strain; format: cell-based; details: Staphylococcus aureus, ATCC25923, 18 h
S. aureus ATCC 6538 = assay: MIC, twofold microdilution, standard strain; format: cell-based, Staphylococcus aureus; details: for MIC: Staphylococcus aureus, ATCC6538, standard strain, 18 h
S. aureus ATCC 29213 = assay: MIC, twofold microdilution, standard strain; format: cell-based; details: Staphylococcus aureus, ATCC29213, 18 h
[1] = test system: S. epidermidis ATCC 12228; assay: MIC, twofold microdilution, standard strain; format: cell-based; details: Staphylococcus epidermidis, ATCC12228, 18 h
[2] = test system: S. epidermidis ATCC 35984; assay: MIC, twofold microdilution, standard strain; format: cell-based; details: Staphylococcus epidermidis, ATCC35984, 18 h
P. aeruginosa ATCC 15442 = assay: MIC, twofold microdilution, standard strain; format: cell-based, Pseudomonas aeruginosa; details: for MIC: Pseudomonas aeruginosa, ATCC15442, standard strain, 18 h
E. coli ATCC 25922 = assay: MIC, twofold microdilution, standard strain; format: cell-based, Escherichia coli; details: for MIC: Escherichia coli, ATCC25922, standard strain, 18 h
S. aureus 180 = assay: MIC, twofold microdilution, clinical strain; format: cell-based; details: Staphylococcus aureus, 18 h
S. aureus 5595 = assay: MIC, twofold microdilution, clinical strain; format: cell-based; details: Staphylococcus aureus, 18 h
S. aureus T5595 = assay: MIC, twofold microdilution, clinical strain; format: cell-based, Staphylococcus aureus; details: for MIC S. aureus T5595: 18 h; for MIC: Staphylococcus aureus, T5595, 18 h
S. aureus T5591 = assay: MIC, twofold microdilution, clinical strain; format: cell-based, Staphylococcus aureus; details: for MIC S. aureus T5591: 18 h; for MIC: Staphylococcus aureus, T5591, 18 h
S. epidermidis 4341 = assay: MIC, twofold microdilution, clinical strain; format: cell-based; details: Staphylococcus epidermidis, 18 h
S. epidermidis 5253 = assay: MIC, twofold microdilution, clinical strain; format: cell-based, Staphylococcus epidermidis; details: for MIC: Staphylococcus epidermidis, 5253, 18 h
S. epidermidis KR4243/1 = assay: MIC, twofold microdilution, clinical strain; format: cell-based; details: Staphylococcus epidermidis, 18 h
S. pasteuri KR 4358 = assay: MIC, twofold microdilution, clinical strain; format: cell-based; details: Staphylococcus pasteuri, KR4358, 18 h
P. aeruginosa 37 = assay: MIC, twofold microdilution, clinical strain; format: cell-based; details: Pseudomonas aeruginosa, 18 h
P. aeruginosa 659 = assay: MIC, twofold microdilution, clinical strain; format: cell-based; details: Pseudomonas aeruginosa, 18 h
E. coli 951 = assay: MIC, twofold microdilution, clinical strain; format: cell-based; details: Escherichia coli, 18 h
E. coli 520 = assay: MIC, twofold microdilution, clinical strain; format: cell-based; details: Escherichia coli, 18 h
E. coli 600 = assay: MIC, twofold microdilution, clinical strain; format: cell-based, Escherichia coli; details: Escherichia coli, 600, 18 h
E. cloacae 8 = assay: MIC, twofold microdilution, clinical strain; format: cell-based, Escherichia cloacae; details: for MIC: Enterobacter cloacae, 8, clinical strain, 18 h
K. pneumoniae 28 = assay: MIC, twofold microdilution, clinical strain; format: cell-based; details: Klebsiella pneumoniae, 18 h
K. pneumoniae 510 = assay: MIC, twofold microdilution, clinical strain; format: cell-based, Klebsiella pneumoniae; details: for MIC: Klebsiella pneumoniae, 510, clinical strain, 18 h
M. tuberculosis H37Rv = assay: Tuberculostatic activity, Microplate Alamar Blue Assay (MIC); format: cell-based, Mycobacterium tuberculosis; parameters: concentration with growth inhibition as good as RMP and SM or EMB: unit not given here; details: for MIC: Mycobacterium tuberculosis, H37RV, MABA, read-out: MIC M. tuberculosis H37Rv
[3] = test system: M. tuberculosis Spec. 192; assay: as above; format: cell-based; details: Mycobacterium tuberculosis, MABA, read-out: MIC M. tuberculosis Spec. 192 (sensitive to tuberculostatics)
PC3 cells = assay: MTT assay, cytotoxic activity; format: cell-based, human; details: MTT, 72 h
Outline: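 Cytotoxicity readout: relative MTT level (%), i.e. absorbance of compound-treated PC3 cells divided by that of untreated controls, ×100. Cultures were kept in a humidified 37 °C, 5% CO2 incubator.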

[4] = MTT assay, cytotoxic activity; format: cell-based; details: human, HaCaT cells (immortal keratinocytes); MTT, 72 h, normal cell line; read-out: IC50 HaCaT
Outline: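 Viability was calculated as A/B × 100%, with A the absorbance of treated samples and B that of untreated controls, from MTT reduction. Cells were cultured in a humidified 37 °C/5% CO2 incubator.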

[5] = test system: clinical bacterial strains; assay: MIC, clinical isolates as groups of strains; format: cell-based; details: for MIC: clinical strains, read-out: MIC against selected E. coli and E. cloacae strains

| Structure (SMILES) | MIC (S. aureus NCTC 4163) [µg/mL] | MIC (S. aureus ATCC 25923) [µg/mL] | MIC (S. aureus ATCC 6538) [µg/mL] | MIC (S. aureus ATCC 29213) [µg/mL] | MIC [1] [µg/mL] | MIC [2] [µg/mL] | MIC (P. aeruginosa ATCC 15442) [µg/mL] | MIC (E. coli ATCC 25922) [µg/mL] | MIC (S. aureus 180) [µg/mL] | MIC (S. aureus 5595) [µg/mL] | MIC (S. aureus T5595) [µg/mL] | MIC (S. aureus T5591) [µg/mL] | MIC (S. epidermidis 4341) [µg/mL] | MIC (S. epidermidis 5253) [µg/mL] | MIC (S. epidermidis KR4243/1) [µg/mL] | MIC (S. pasteuri KR 4358) [µg/mL] | MIC (P. aeruginosa 37) [µg/mL] | MIC (P. aeruginosa 659) [µg/mL] | MIC (E. coli 951) [µg/mL] | MIC (E. coli 520) [µg/mL] | also measured |
| --- | --- | --- | --- | --- | --- | --- | --- | --- | --- | --- | --- | --- | --- | --- | --- | --- | --- | --- | --- | --- | --- |
| O=C(O)c1cn(C2CC2)c2cc(N3CCN(C(=O)C4CC4)CC3)c(F)cc2c1=O [Compound 2, 7-(4-Cyclopropanecarbonyl-piperazin-1-yl)-1-cyclopropyl-6-fluoro-4-oxo-1,4-dihydro-quinoline-3-carboxylic Acid] | 0.1 (≈ 0.25 µM) | 0.2 (≈ 0.501 µM) | 0.1 (≈ 0.25 µM) | 0.1 (≈ 0.25 µM) | 0.1 (≈ 0.25 µM) | 0.1 (≈ 0.25 µM) | 0.8 (≈ 2 µM) | 0.05 (≈ 0.125 µM) | 0.4 (≈ 1 µM) | 0.4 (≈ 1 µM) | 0.1 to 0.2 (≈ 0.25 to 0.501 µM) | 0.1 to 0.2 (≈ 0.25 to 0.501 µM) | 12.8 (≈ 32 µM) | 12.8 to 25.6 (≈ 32 to 64.1 µM) | 0.2 (≈ 0.501 µM) | 0.2 (≈ 0.501 µM) | 12.8 (≈ 32 µM) | 6.4 (≈ 16 µM) | 6.4 (≈ 16 µM) | 0.2 (≈ 0.501 µM) | MIC S. aureus T5595 (S. aureus T5595): 0.2 µg/mL (≈ 0.501 µM); MIC S. aureus T5591 (S. aureus T5591): 0.2 µg/mL (≈ 0.501 µM); MIC S. epidermidis 5253 (S. epidermidis 5253; 18 h): 25.6 µg/mL (≈ 64.1 µM); MIC (E. coli 600): 0.2 µg/mL (≈ 0.501 µM); MIC times lower than CP alone (E. cloacae 8; E. cloacae isolate): 1.2 times; MIC (E. cloacae 8): 0.05 µg/mL (≈ 0.125 µM); MIC (K. pneumoniae 28): > 25.6 µg/mL; MIC (K. pneumoniae 510): 25.6 µg/mL (≈ 64.1 µM); concentration with growth inhibition as good as RMP and SM or EMB (M. tuberculosis H37Rv; M. tuberculosis H37Rv): 1–2; MIC (M. tuberculosis H37Rv): 1 µg/mL (≈ 2.5 µM); MIC [3]: 0.5 µg/mL (≈ 1.25 µM); IC50 (PC3 cells; Homo sapiens, PC-3, 72 h): 85.2 ± 8.2 µM; IC50 at 72 h [4]: 75.7 ± 7.5 µM; times more powerful than CP ([5]; S. aureus T5595 and T5591): 1.25–2.5 times; MIC [5]: 0.1 to 0.8 µg/mL (≈ 0.25 to 2 µM) |
| O=C(O)c1cn(C2CC2)c2cc(N3CCN(C(=O)CCl)CC3)c(F)cc2c1=O [Compound 3, 7-[4-(2-Chloroacetyl)-piperazin-1-yl]-1-cyclopropyl-6-fluoro-4-oxo-1,4-dihydro-quinoline-3-carboxylic Acid] | 0.1 (≈ 0.245 µM) | 0.2 (≈ 0.49 µM) | 0.2 (≈ 0.49 µM) | 0.2 (≈ 0.49 µM) | 0.2 (≈ 0.49 µM) | 0.1 (≈ 0.245 µM) | 6.4 (≈ 15.7 µM) | 0.2 (≈ 0.49 µM) | 0.4 (≈ 0.981 µM) | 0.4 (≈ 0.981 µM) | 0.1 to 0.2 (≈ 0.245 to 0.49 µM) | 0.1 to 0.2 (≈ 0.245 to 0.49 µM) | 12.8 (≈ 31.4 µM) | > 25.6 | 0.2 (≈ 0.49 µM) | 0.2 (≈ 0.49 µM) | > 25.6 | > 25.6 | > 25.6 | 0.4 (≈ 0.981 µM) | MIC S. aureus T5595 (S. aureus T5595): 0.2 µg/mL (≈ 0.49 µM); MIC S. aureus T5591 (S. aureus T5591): 0.1 µg/mL (≈ 0.245 µM); MIC (E. coli 600): 0.4 µg/mL (≈ 0.981 µM); MIC (E. cloacae 8): 0.8 µg/mL (≈ 1.96 µM); MIC (K. pneumoniae 28): > 25.6 µg/mL; MIC (K. pneumoniae 510): 25.6 µg/mL (≈ 62.8 µM); MIC (M. tuberculosis H37Rv): 4 µg/mL (≈ 9.81 µM); MIC [3]: 2 µg/mL (≈ 4.9 µM); IC50 (PC3 cells; Homo sapiens, PC-3, 72 h): 2.02 to 4.8 µM; IC50 (PC3 cells): 2.02 ± 0.1 µM; IC50 at 72 h [4]: 35.7 ± 8.2 µM; times more powerful than CP ([5]; S. aureus T5595 and T5591): 1.25–2.5 times; MIC [5]: 0.1 to 0.8 µg/mL (≈ 0.245 to 1.96 µM) |
| O=C(O)c1cn(C2CC2)c2cc(N3CCN(C(=O)CCCCl)CC3)c(F)cc2c1=O [Compound 5, 7-[4-(4-Chlorobutyryl)-piperazin-1-yl]-1-cyclopropyl-6-fluoro-4-oxo-1,4-dihydro-quinoline-3-carboxylic Acid] | 0.2 (≈ 0.459 µM) | 0.8 (≈ 1.84 µM) | 0.2 (≈ 0.459 µM) | 0.4 (≈ 0.918 µM) | 0.4 (≈ 0.918 µM) | 0.2 (≈ 0.459 µM) | 0.2 (≈ 0.459 µM) | 0.025 (≈ 0.0574 µM) | 0.4 (≈ 0.918 µM) | 0.4 (≈ 0.918 µM) | 0.4 (≈ 0.918 µM) | 0.4 (≈ 0.918 µM) | 12.8 (≈ 29.4 µM) | > 25.6 | 0.2 (≈ 0.459 µM) | 0.2 (≈ 0.459 µM) | 0.8 (≈ 1.84 µM) | 0.8 (≈ 1.84 µM) | 0.8 (≈ 1.84 µM) | 0.025 (≈ 0.0574 µM) | MIC used in biofilm eradication assay, S. aureus 6538 (S. aureus ATCC 6538; Table S1, MIC): 0.200 µg/mL (≈ 0.459 µM); MIC used in biofilm eradication assay, P. aeruginosa 15442 (P. aeruginosa ATCC 15442; Table S1, MIC): 0.200 µg/mL (≈ 0.459 µM); MIC used in biofilm eradication assay, E. coli ATCC 25922 (E. coli ATCC 25922; Table S1, MIC): 0.025 µg/mL (≈ 0.0574 µM); MIC (E. coli 600): 0.025 µg/mL (≈ 0.0574 µM); MIC (E. cloacae 8): 0.05 µg/mL (≈ 0.115 µM); MIC (K. pneumoniae 28): > 25.6 µg/mL; share of the reference (CP) activity (K. pneumoniae 510; Klebsiella pneumoniae rods): 62.5%; MIC (K. pneumoniae 510): 6.4 µg/mL (≈ 14.7 µM); MIC (M. tuberculosis H37Rv): 0.5 µg/mL (≈ 1.15 µM); MIC [3]: 0.5 µg/mL (≈ 1.15 µM); IC50 (PC3 cells; Homo sapiens, PC-3, 72 h): 97.2 ± 11 µM; IC50 at 72 h [4]: > 100 µM; share of the reference (CP) activity ([5]; S. aureus T5595 and T5591): 62.5% |
